Laboratory results published in patent US20040006070A1, “Intraspinal continuous infusion of midazolam hydrochloride for the treatment of pain” (priority 2002, published 2004).
Counter-ions that a name gives are not always drawn.

Assay: Bloodwork: complete blood count, electrolytes, extended blood chemistry
Format: in vivo, sheep
Conditions: for Total Bili: ref 0.14-0.32; for Creatinine: ref 1-2.7; for Albumin: ref 2.4-3; for K+: ref 3.9-5.4; for Phos: ref 5-7.3; for Total Prot: ref 6-7.9
Experimental: Indirect blood pressure, pulse recording, pain testing (mechanical stimulus device, cold and warm water baths see description in procedure) and weight were taken on days 1, 3, 7, 15, 22, 29, 36, and 43. Venous blood samples (15 ml drawn from the jugular vein with Vacutainer brand blood collection tubes) for complete blood count, electrolytes, and extended blood chemistry were drawn on days 1, 15, and 43 (mild procedure only light hand restraint necessary).

In the case of `Cc1ncc2n1-c1ccc(Cl)cc1C(c1ccccc1F)=NC2` [Midazolam, midazolam hydrochloride], the AST (sheep #473, 3 mg/day, Day 1) is reported as 239 U/L, the “Alk Phos” value (sheep #473, 3 mg/day, Day 1) is reported as 41 U/L and the BUN (sheep #473, 3 mg/day, Day 1) is reported as 10 mg/dL. The CPK (sheep #473, 3 mg/day, Day 1) was 392 U/L, the Cholesterol (sheep #473, 3 mg/day, Day 1) was 72 mg/dL and the “Differential Count: Eosin” value (sheep #473, 3 mg/day, Day 1) was 1%. The “Differential Count: Lymph” value (sheep #473, 3 mg/day, Day 1) was 39%, the “Differential Count: Mono” value (sheep #473, 3 mg/day, Day 1) was 1% and the “Differential Count: Seg” value (sheep #473, 3 mg/day, Day 1) was 59%. The “Gamma GT” value (sheep #473, 3 mg/day, Day 1) was 69 U/L, the Glucose (sheep #473, 3 mg/day, Day 1) was 91 mg/dL and the Hct (sheep #473, 3 mg/day, Day 1) was 33.0%. It also gave a Hgb (sheep #473, 3 mg/day, Day 1) of 11.3 g/dL, an MCH (sheep #473, 3 mg/day, Day 1) of 9.7 pg and an MCHC (sheep #473, 3 mg/day, Day 1) of 32.2 G/dl. The MCV (sheep #473, 3 mg/day, Day 1) was 30.0 fL, the “Na+” value (sheep #473, 3 mg/day, Day 1) was 153 mEq/l and the “Platlet Count” value (sheep #473, 3 mg/day, Day 1) was 666000 µL⁻¹. The RBC (sheep #473, 3 mg/day, Day 1) was 1.1e+07 µL⁻¹, the WBC (sheep #473, 3 mg/day, Day 1) was 5800 µL⁻¹ and the “Total Bili” value (sheep #473, 3 mg/day, Day 1) was 0.2 mg/dL. For the same molecule, the Creatinine (sheep #473, 3 mg/day, Day 1) was 1.0 mg/dL, the Albumin (sheep #473, 3 mg/day, Day 1) was 3.4 g/dL and the “K+” value (sheep #473, 3 mg/day, Day 1) was 4.4 mEq/l. For the same molecule, the Phos (sheep #473, 3 mg/day, Day 1) was 6.9 mg/dL, the “Total Prot” value (sheep #473, 3 mg/day, Day 1) was 6.5 g/dL and the ALT (sheep #473, 3 mg/day, Day 15) was 1 U/L. The AST (sheep #473, 3 mg/day, Day 15) was 85 U/L, the “Alk Phos” value (sheep #473, 3 mg/day, Day 15) was 59 U/L and the BUN (sheep #473, 3 mg/day, Day 15) was 10 mg/dL. The CPK (sheep #473, 3 mg/day, Day 15) was 98 U/L, the Cholesterol (sheep #473, 3 mg/day, Day 15) was 79 mg/dL and the “Differential Count: Eosin” value (sheep #473, 3 mg/day, Day 15) was 6%. The “Differential Count: Lymph” value (sheep #473, 3 mg/day, Day 15) was 53%, the “Differential Count: Mono” value (sheep #473, 3 mg/day, Day 15) was 1% and the “Differential Count: Seg” value (sheep #473, 3 mg/day, Day 15) was 40%. For the same molecule, the “Gamma GT” value (sheep #473, 3 mg/day, Day 15) was 59 U/L, the Glucose (sheep #473, 3 mg/day, Day 15) was 74 mg/dL and the Hct (sheep #473, 3 mg/day, Day 15) was 41.0%. For the same molecule, the Hgb (sheep #473, 3 mg/day, Day 15) was 12.9 g/dL, the MCH (sheep #473, 3 mg/day, Day 15) was 9.3 pg and the MCHC (sheep #473, 3 mg/day, Day 15) was 31.5 G/dl. For the same molecule, the MCV (sheep #473, 3 mg/day, Day 15) was 29.6 fL, the “Na+” value (sheep #473, 3 mg/day, Day 15) was 152 mEq/l and the “Platlet Count” value (sheep #473, 3 mg/day, Day 15) was 336000 µL⁻¹. For the same molecule, the RBC (sheep #473, 3 mg/day, Day 15) was 1.25e+07 µL⁻¹, the WBC (sheep #473, 3 mg/day, Day 15) was 5100 µL⁻¹ and the “Total Bili” value (sheep #473, 3 mg/day, Day 15) was 0.1 mg/dL. The Creatinine (sheep #473, 3 mg/day, Day 15) was 1.2 mg/dL, the Albumin (sheep #473, 3 mg/day, Day 15) was 3.7 g/dL and the “K+” value (sheep #473, 3 mg/day, Day 15) was 4.6 mEq/l. The Phos (sheep #473, 3 mg/day, Day 15) was 5.8 mg/dL, the “Total Prot” value (sheep #473, 3 mg/day, Day 15) was 6.7 g/dL and the ALT (sheep #473, 3 mg/day, Day 43) was 8 U/L. The AST (sheep #473, 3 mg/day, Day 43) was 61 U/L, the “Alk Phos” value (sheep #473, 3 mg/day, Day 43) was 73 U/L and the BUN (sheep #473, 3 mg/day, Day 43) was 15 mg/dL. The CPK (sheep #473, 3 mg/day, Day 43) was 82 U/L, the Cholesterol (sheep #473, 3 mg/day, Day 43) was 78 mg/dL and the “Differential Count: Eosin” value (sheep #473, 3 mg/day, Day 43) was 2%. For the same molecule, the “Differential Count: Lymph” value (sheep #473, 3 mg/day, Day 43) was 60%, the “Differential Count: Mono” value (sheep #473, 3 mg/day, Day 43) was 2% and the “Differential Count: Seg” value (sheep #473, 3 mg/day, Day 43) was 36%. The “Gamma GT” value (sheep #473, 3 mg/day, Day 43) was 58 U/L, the Glucose (sheep #473, 3 mg/day, Day 43) was 59 mg/dL and the Hct (sheep #473, 3 mg/day, Day 43) was 41.5%. The Hgb (sheep #473, 3 mg/day, Day 43) was 12.9 g/dL, the MCH (sheep #473, 3 mg/day, Day 43) was 9.4 pg and the MCHC (sheep #473, 3 mg/day, Day 43) was 31.1 G/dl. For the same molecule, the MCV (sheep #473, 3 mg/day, Day 43) was 30.2 fL, the “Na+” value (sheep #473, 3 mg/day, Day 43) was 150 mEq/l and the “Platlet Count” value (sheep #473, 3 mg/day, Day 43) was 263000 µL⁻¹. For the same molecule, the RBC (sheep #473, 3 mg/day, Day 43) was 1.373e+07 µL⁻¹, the WBC (sheep #473, 3 mg/day, Day 43) was 3400 µL⁻¹ and the “Total Bili” value (sheep #473, 3 mg/day, Day 43) was 0.0 mg/dL. For the same molecule, the Creatinine (sheep #473, 3 mg/day, Day 43) was 1.5 mg/dL, the Albumin (sheep #473, 3 mg/day, Day 43) was 3.4 g/dL and the “K+” value (sheep #473, 3 mg/day, Day 43) was 5.6 mEq/l. For the same molecule, the Phos (sheep #473, 3 mg/day, Day 43) was 5.3 mg/dL, the “Total Prot” value (sheep #473, 3 mg/day, Day 43) was 6.4 g/dL and the ALT (sheep #498, 10 mg/day, Day 1) was 8.0 U/L. For the same molecule, the AST (sheep #498, 10 mg/day, Day 1) was 95 U/L, the “Alk Phos” value (sheep #498, 10 mg/day, Day 1) was 45 U/L and the BUN (sheep #498, 10 mg/day, Day 1) was 9.0 Mg/dl. For the same molecule, the CPK (sheep #498, 10 mg/day, Day 1) was 89 U/L, the Cholesterol (sheep #498, 10 mg/day, Day 1) was 63 Mg/dl and the “Differential Count: Atyp lym” value (sheep #498, 10 mg/day, Day 1) was 2%. The “Differential Count: Baso” value (sheep #498, 10 mg/day, Day 1) was 1%, the “Differential Count: Lymph” value (sheep #498, 10 mg/day, Day 1) was 28% and the “Differential Count: Mono” value (sheep #498, 10 mg/day, Day 1) was 1%. For the same molecule, the “Differential Count: Seg” value (sheep #498, 10 mg/day, Day 1) was 68%, the “Gamma GT” value (sheep #498, 10 mg/day, Day 1) was 74 U/L and the Glucose (sheep #498, 10 mg/day, Day 1) was 131 mg/dL. It also gave a Hct (sheep #498, 10 mg/day, Day 1) of 31.0%, a Hgb (sheep #498, 10 mg/day, Day 1) of 11.1 g/dL and an MCH (sheep #498, 10 mg/day, Day 1) of 9.6 pg. The MCHC (sheep #498, 10 mg/day, Day 1) was 32.0 g/dL, the MCV (sheep #498, 10 mg/day, Day 1) was 30.1 fL and the “Na+” value (sheep #498, 10 mg/day, Day 1) was 151 mEq/l. The “Platlet Count” value (sheep #498, 10 mg/day, Day 1) was 592000 µL⁻¹, the RBC (sheep #498, 10 mg/day, Day 1) was 1.153e+07 µL⁻¹ and the WBC (sheep #498, 10 mg/day, Day 1) was 6000 µL⁻¹. The “Total Bili” value (sheep #498, 10 mg/day, Day 1) was 0.2 mg/dL, the Creatinine (sheep #498, 10 mg/day, Day 1) was 1.6 mg/dL and the Albumin (sheep #498, 10 mg/day, Day 1) was 3.9 g/dL. The “K+” value (sheep #498, 10 mg/day, Day 1) was 4.4 mEq/l, the Phos (sheep #498, 10 mg/day, Day 1) was 3.8 Mg/dl and the “Total Prot” value (sheep #498, 10 mg/day, Day 1) was 6.4 g/dL. For the same molecule, the ALT (sheep #498, 10 mg/day, Day 15) was 7.0 U/L, the AST (sheep #498, 10 mg/day, Day 15) was 86 U/L and the “Alk Phos” value (sheep #498, 10 mg/day, Day 15) was 87 U/L. The BUN (sheep #498, 10 mg/day, Day 15) was 16 Mg/dl, the CPK (sheep #498, 10 mg/day, Day 15) was 154 U/L and the Cholesterol (sheep #498, 10 mg/day, Day 15) was 63 Mg/dl. For the same molecule, the “Differential Count: Bands” value (sheep #498, 10 mg/day, Day 15) was 8%, the “Differential Count: Lymph” value (sheep #498, 10 mg/day, Day 15) was 66% and the “Differential Count: Mono” value (sheep #498, 10 mg/day, Day 15) was 3%. For the same molecule, the “Differential Count: Seg” value (sheep #498, 10 mg/day, Day 15) was 23%, the “Gamma GT” value (sheep #498, 10 mg/day, Day 15) was 90 U/L and the Glucose (sheep #498, 10 mg/day, Day 15) was 78 mg/dL. It also gave a Hct (sheep #498, 10 mg/day, Day 15) of 44.8%, a Hgb (sheep #498, 10 mg/day, Day 15) of 13.3 g/dL and an MCH (sheep #498, 10 mg/day, Day 15) of 9.2 pg. The MCHC (sheep #498, 10 mg/day, Day 15) was 29.7 g/dL, the MCV (sheep #498, 10 mg/day, Day 15) was 31.1 fL and the “Na+” value (sheep #498, 10 mg/day, Day 15) was 151 mEq/l. For the same molecule, the “Platlet Count” value (sheep #498, 10 mg/day, Day 15) was 42000 µL⁻¹, the RBC (sheep #498, 10 mg/day, Day 15) was 1.439e+07 µL⁻¹ and the WBC (sheep #498, 10 mg/day, Day 15) was 8600 µL⁻¹. For the same molecule, the “Total Bili” value (sheep #498, 10 mg/day, Day 15) was 0.1 mg/dL, the Creatinine (sheep #498, 10 mg/day, Day 15) was 1.8 mg/dL and the Albumin (sheep #498, 10 mg/day, Day 15) was 3.4 g/dL. For the same molecule, the “K+” value (sheep #498, 10 mg/day, Day 15) was 5.1 mEq/l, the Phos (sheep #498, 10 mg/day, Day 15) was 6.4 Mg/dl and the “Total Prot” value (sheep #498, 10 mg/day, Day 15) was 6.7 g/dL. For the same molecule, the ALT (sheep #498, 10 mg/day, Day 43) was 8.0 U/L, the AST (sheep #498, 10 mg/day, Day 43) was 89 U/L and the “Alk Phos” value (sheep #498, 10 mg/day, Day 43) was 87 U/L. It also gave a BUN (sheep #498, 10 mg/day, Day 43) of 13 Mg/dl, a CPK (sheep #498, 10 mg/day, Day 43) of 203 U/L and a Cholesterol (sheep #498, 10 mg/day, Day 43) of 67 Mg/dl. The “Differential Count: Eosin” value (sheep #498, 10 mg/day, Day 43) was 3%, the “Differential Count: Lymph” value (sheep #498, 10 mg/day, Day 43) was 63% and the “Differential Count: Mono” value (sheep #498, 10 mg/day, Day 43) was 1%. For the same molecule, the “Differential Count: Seg” value (sheep #498, 10 mg/day, Day 43) was 33%, the “Gamma GT” value (sheep #498, 10 mg/day, Day 43) was 65 U/L and the Glucose (sheep #498, 10 mg/day, Day 43) was 77 mg/dL. It also gave a Hct (sheep #498, 10 mg/day, Day 43) of 34.7% and a Hgb (sheep #498, 10 mg/day, Day 43) of 10.5 g/dL.
